Reference: publication PMC8196787, “Design and Pharmacodynamics of Recombinant Fungus Defensin NZL with Improved Activity against Staphylococcus hyicus In Vitro and In Vivo” (International Journal of Molecular Sciences, 2021)
Values after ≈ are worked out from the molar mass of the structure shown. Values joined by “and” are separate entries in the source; they are usually repeats but may differ in a detail not shown here. Equal entries are not always repeated. Where two headings read alike, the source gives them in different places. Positions of bridges follow the written chain, without caps; N, C: chain ends. Residues, ends and D or L forms follow the SMILES beside them.

Legend:
IL-6 = test: Mouse peritonitis model, serum cytokine ELISA; type: in vivo
Protocol: (§1) Likewise, mice (15 mice/group) were injected with the exponential phase S. hyicus NCTC 10350 cells (1 × 10^9 CFU/mL, 1 mL) and treated with 10 mg/kg peptides or 60 mg/kg CRO. After 2 and 24 h post-treatment, sera were collected to test the levels of cytokines using enzyme linked immunosorbent assay (ELISA) kit. To evaluate bacterial translocation, organs were harvest from mice at 24-h post-treatment for colony counting; then, organs were removed from mice at 5 d post-treatment and observed through a light microscope to assess organ injury. The uninfected mice, the treated mice with CRO or PBS were served as the blank control, positive and negative control, respectively.

TNF-α = test: Mouse peritonitis model, serum cytokine ELISA; type: in vivo
Protocol: as §1

IL-1β = test: Mouse peritonitis model, serum cytokine ELISA; type: in vivo
Protocol: as §1

S. hyicus ACCC 61734 = test: microbe, parasite or virus in culture; type: cell-based; settings: for MIC: S. hyicus ACCC 61734 (clinical strain), microbroth dilution, MHB, 37 °C, 16–20 h, triplicate, read-out: MIC
Protocol: (§2) The microbroth dilution method was used to evaluate the MIC values of new derivative peptides. […] The MIC value was defined as the lowest concentration where no visible bacteria growth occurred after overnight incubation. CRO was used as the positive control. All assays were conducted in triplicate.

S. hyicus NCTC 10350 [1] = test: microbe, parasite or virus in culture; type: cell-based; settings: MHB, 37 °C, 16–20 h, triplicate
Protocol: as §2

S. aureus ATCC 25923 = test: microbe, parasite or virus in culture; type: cell-based; settings: MHB, 37 °C, 16–20 h, triplicate
Protocol: as §2

S. aureus ATCC 43300 = test: microbe, parasite or virus in culture; type: cell-based; settings: read-out: MIC
Protocol: as §2

S. hyicus NCTC 10350 [2] = test: Time-killing curves; type: cell-based
Protocol: Time-kill curves were performed to assess the bactericidal rates of peptides against S. hyicus NCTC 10350 [25]. […] The samples were taken at regular intervals for colony counting. Cells treated with PBS and CRO were used as the negative control and positive control.

S. hyicus NCTC 10350 [3] = test: Mouse peritonitis model, bacterial translocation; type: in vivo; settings: 24 h post-treatment, mean, n = 5
Protocol: as §1

[4] = system: intracellular S. hyicus NCTC 10350 in Hacat cells; type: cell-based; settings: 24 h treatment, mean, n = 3; for Killing rate of intracellular S. hyicus: 1000× MIC
Protocol: Hacat cells (2.5 × 10^5 cells/mL) were dispensed into a 12-well plate for 24 h. Besides, the mid-log phase S. hyicus NCTC 10350 (2.5 × 10^7 CFU/mL) were coincubated with Hacat cells for 0.5 h. Then, lysostaphin was supplemented to kill extracellular bacteria. Hereafter, cells were treated with peptides or CRO for 24 h and lysed with lysis buffer. The intracellular bacteria were processed for colony counting.

S. hyicus NCTC 10350 [5] = test: Mouse peritonitis model, survival; type: in vivo; settings: 7 days
Protocol: The mice (6 mice/group) were intraperitoneally infected with the exponential phase S. hyicus NCTC 10350 cells (1 × 10^9 CFU/mL, 1 mL) to establish a mouse peritonitis model. […] Survival of mice was recorded daily for 7 days.

Hacat cells = test: Cytotoxicity, MTT assay; type: cell-based; settings: within 256 μg/mL (1–256 μg/mL), n = 3
Protocol: The cytotoxicity of peptides toward Hacat cells was determined by the 3-(4,5-dimethylthiazol-2-yl)-2,5-diphenyltetrazolium bromide (MTT) assay according to a previous study.

S. hyicus NCTC 10350 [6] = test: Thermal stability, inhibition zone assay; type: physicochemical; settings: 1 h, 64 μg/mL, inhibition zone against S. hyicus NCTC 10350, triplicate
Protocol: (§3) The stability of NZL or NZ2114 against S. hyicus NCTC 10350 was conducted by inhibition zone assays. To evaluate the thermal stability, 64 μg/mL NZL or NZ2114 was incubated at different temperatures (20 °C, 40 °C, 60 °C, 80 °C, and 100 °C) for 1 h. Besides, aliquots of NZL or NZ2114 were dissolved in different pH buffers in a range from 2.0 to 10.0 at 37 °C for 3 h to analyze the pH stability. NZL or NZ2114 was mixed with pepsin or trypsin solutions at a ratio of 10:1 (w/w) to determine the protease stability. The untreated peptides and buffers alone were used as positive controls and negative controls, respectively. All assays were conducted in triplicate.

S. hyicus NCTC 10350 [7] = test: pH stability, inhibition zone assay; type: physicochemical; settings: 3 h, triplicate
Protocol: as §3

S. hyicus NCTC 10350 [8] = test: Mouse peritonitis model, organ injury by light microscope; type: in vivo; settings: 10 mg/kg, organs harvested at 5 d
Protocol: as §1

mouse erythrocytes = test: Hemolysis; type: cell-based; settings: at 256 μg/mL; 8% (v/v) mouse erythrocytes in 0.9% NaCl, 37 °C, 1 h, 540 nm; n = 3
Protocol: The hemolytic activity of peptides against fresh mouse erythrocytes was evaluated as described previously. In brief, 8% (v/v) erythrocyte solution in 0.9% NaCl was mixed with peptide solution (1–256 μg/mL) in an equal volume; then the mixtures were incubated at 37 °C for 1 h, centrifuged at 5000 rpm for 5 min and measured at 540 nm on a microplate reader. The absorbance of 0.9% NaCl (A0) and 0.1% Triton X-100 (A100) was used as controls. The hemolysis percentages of peptide were calculated by the following equation: Hemolysis (%) = [(A − A0)/(A100 − A0)] × 100.

[9] = microbroth dilution, read-out: MIC

CO/N=C(\C(=O)N[C@@H]1C(=O)N2C(C(=O)O)=C(CSc3nc(=O)c(=O)[nH]n3C)CS[C@H]12)c1csc(N)n1 [CRO, ceftriaxone, reference compound]
Serum level of IL-6 (IL-6; 60 mg/kg, 2 h after treatment): 981.56 pg/mL | Serum level of IL-6 (IL-6; 60 mg/kg, 24 h after treatment): 85.74 pg/mL | Serum level of TNF-α (TNF-α; 60 mg/kg, 2 h after treatment): 233.16 pg/mL | Serum level of TNF-α (TNF-α; 60 mg/kg, 24 h after treatment): 3.43 pg/mL | Serum level of IL-1β (IL-1β; 60 mg/kg, 2 h after treatment): 94.75 pg/mL | Serum level of IL-1β (IL-1β; 60 mg/kg, 24 h after treatment): 11.60 pg/mL | MIC (S. hyicus ACCC 61734; Staphylococcus hyicus, ACCC61734): 4 µg/mL and 6.04 µM | MIC (S. hyicus NCTC 10350 [1]; Staphylococcus hyicus, NCTC10350, microbroth dilution, read-out: MIC): 8 µg/mL and 12.1 µM | MIC (S. aureus ATCC 25923; Staphylococcus aureus, ATCC25923, microbroth dilution, read-out: MIC): 4 µg/mL and 6.04 µM | MIC (S. aureus ATCC 43300; Staphylococcus aureus, ATCC43300, S. aureus ATCC 43300, microbroth dilution, MHB, 37 °C, 16–20 h, triplicate): 12.1 µM | MIC (S. aureus ATCC 43300; Staphylococcus aureus, ATCC43300): 8 µg/mL | Bacterial count at regrowth (S. hyicus NCTC 10350 [2]; 2× MIC, at 24 h): 5.65 Log10 CFU/mL | Bacterial counts in blood (S. hyicus NCTC 10350 [3]; 60 mg/kg): 1.02 Log10 CFU/0.1 g | Bacterial counts in kidneys (S. hyicus NCTC 10350 [3]; 60 mg/kg): 4.69 Log10 CFU/0.1 g | Bacterial counts in livers (S. hyicus NCTC 10350 [3]; 60 mg/kg): 4.35 Log10 CFU/0.1 g | Bacterial counts in lungs (S. hyicus NCTC 10350 [3]; 60 mg/kg): 5.21 Log10 CFU/0.1 g | Bacterial counts in spleens (S. hyicus NCTC 10350 [3]; 60 mg/kg): 5.19 Log10 CFU/0.1 g | Decrease of intracellular S. hyicus ([4]; 1× MIC, colony counting): 88.53% | Decrease of intracellular S. hyicus ([4]; 5× MIC): 89.25% | Decrease of intracellular S. hyicus ([4]; 10× MIC): 83.87% | Killing rate of intracellular S. hyicus [4]: 97.6% | Survival rate (S. hyicus NCTC 10350 [5]; 30 mg/kg and 60 mg/kg i.p. at 2 h and 8 h post-infection, compared with NZL 5 mg/kg and 10 mg/kg): identical survival rates with NZL

CC[C@H](C)[C@@H]1NC(=O)[C@H](CO)NC(=O)[C@H](CCCCN)NC(=O)[C@@H]2CSSC[C@@H](C(=O)N[C@@H](Cc3ccc(O)cc3)C(=O)O)NC(=O)[C@H](CCCCN)NC(=O)[C@@H]3CSSC[C@H](NC(=O)[C@H](CCC(N)=O)NC(=O)[C@H]([C@@H](C)CC)NC(=O)[C@H](CC(=O)O)NC(=O)[C@H](CC(=O)O)NC(=O)[C@H](CCC(=O)O)NC(=O)[C@H](CO)NC(=O)[C@H](Cc4c[nH]c5ccccc45)NC(=O)[C@@H]4CCCN4C(=O)CNC(=O)[C@H](CC(N)=O)NC(=O)[C@@H](NC(=O)CNC(=O)[C@H](Cc4ccccc4)NC(=O)CN)CSSC[C@H](NC(=O)[C@H](Cc4ccc(O)cc4)NC(=O)CNC(=O)CNC(=O)[C@H](CCCCN)NC(=O)[C@H](Cc4ccc(O)cc4)NC(=O)CNC(=O)[C@H](CCCCN)NC1=O)C(=O)N[C@@H](C)C(=O)N[C@@H](CCCCN)C(=O)NCC(=O)NCC(=O)N[C@@H](Cc1ccccc1)C(=O)N[C@@H](C(C)C)C(=O)N3)C(=O)N[C@@H](Cc1c[nH]cn1)C(=O)N[C@@H](CC(N)=O)C(=O)N[C@@H](Cc1c[nH]cn1)C(=O)N2 [NZL] (H-GFGCNGPWSEDDIQCHNHCKSIKGYKGGYCAKGGFVCKCY-OH; disulfide 4-30, 15-37, 19-39; N-terminus and C-terminus assumed)
Minimum cell viability (Hacat cells): 60.28% | Thermal stability (S. hyicus NCTC 10350 [6]; 20 to 80 °C): good thermal stability | Activity after heating (S. hyicus NCTC 10350 [6]; 100 °C): no activity | Serum level of IL-6 (IL-6; 10 mg/kg, 2 h after treatment): 1029.28 pg/mL | Serum level of IL-6 (IL-6; 10 mg/kg, 24 h after treatment): 44.92 pg/mL | Serum level of TNF-α (TNF-α; 10 mg/kg, 2 h after treatment): 184.14 pg/mL | Serum level of TNF-α (TNF-α; 10 mg/kg, 24 h after treatment): 5.75 pg/mL | Serum level of IL-1β (IL-1β; 10 mg/kg, 2 h after treatment): 74.00 pg/mL | Serum level of IL-1β (IL-1β; 10 mg/kg, 24 h after treatment): 24.02 pg/mL | MIC (S. hyicus ACCC 61734): 0.23 µM (≈ 1 µg/mL) | Change of MIC against S. hyicus ACCC 61734 compared with NZ2114 (S. hyicus ACCC 61734; clinical strain, NZL vs NZ2114): four-fold | MIC (S. hyicus NCTC 10350 [1]; microbroth dilution): 4 µg/mL | MIC (S. hyicus NCTC 10350 [1]; [9]): 0.92 µM | MIC (S. aureus ATCC 25923; microbroth dilution): 4 µg/mL | MIC (S. aureus ATCC 25923; [9]): 0.92 µM | MIC (S. aureus ATCC 43300; S. aureus ATCC 43300, microbroth dilution, MHB, 37 °C, 16–20 h, triplicate): 0.46 µM | Reduction of bacterial counts (S. hyicus NCTC 10350 [2]; 1× MIC, MHB): 7.37 Log10 CFU/mL | Time within which S. hyicus NCTC 10350 cells were killed completely (S. hyicus NCTC 10350 [2]; 2× and 4× MIC, 1 × 10^5 CFU/mL in MHB, colony counting): ≤ 8 h | Bacterial counts in blood (S. hyicus NCTC 10350 [3]; 10 mg/kg): 0.16 Log10 CFU/0.1 g | Bacterial counts in kidneys (S. hyicus NCTC 10350 [3]; 10 mg/kg): 0.25 Log10 CFU/0.1 g | Bacterial counts in livers (S. hyicus NCTC 10350 [3]; 10 mg/kg): 0.34 Log10 CFU/0.1 g | Bacterial counts in lungs (S. hyicus NCTC 10350 [3]; 10 mg/kg): 0.62 Log10 CFU/0.1 g | Bacterial counts in spleens (S. hyicus NCTC 10350 [3]; 10 mg/kg): 0.58 Log10 CFU/0.1 g | Decrease of intracellular S. hyicus ([4]; 10× MIC): 84.95% | Killing rate of intracellular S. hyicus [4]: 99.96% | pH stability (S. hyicus NCTC 10350 [7]; pH 2 to 10, 37 °C, inhibition zone against S. hyicus NCTC 10350): retained strong stable activity | Activity in the acidic environment (S. hyicus NCTC 10350 [7]; pH 4, 37 °C, inhibition zone against S. hyicus NCTC 10350, relative to untreated peptide): 94% | Organ injury (livers, spleens, lungs, kidneys) (S. hyicus NCTC 10350 [8]): apparently less damaged | Maximum hemolysis (mouse erythrocytes): 1.11% | Survival rate (S. hyicus NCTC 10350 [5]; 5 mg/kg i.p. at 2 h and 8 h post-infection, ICR mice, S. hyicus NCTC 10350 10^9 CFU i.p., 6 mice/group): 50% | Survival rate (S. hyicus NCTC 10350 [5]; 10 mg/kg i.p. at 2 h and 8 h post-infection, ICR mice, S. hyicus NCTC 10350 10^9 CFU i.p., 6 mice/group): 83.3%
